# Values quoted from earlier work in patent EP2117510B1, “PARENTERAL PHARMACEUTICAL COMPOSITION AND METHOD FOR PREPARING THE SAME” (Physica Pharma, priority 2007, dated 2008).
# Settings: water, room temperature (environ 22° C)
structure (smiles),measurement,value
"CC(C)c1cccc(C(C)C)c1O [Propofol, 2,6-diisopropylphénol]",solubilité dans l'eau,~160 µg/mL
